This note sets out measurements from patent publication US4006241A, “Certain halothien-2-yl 5-nitrothiazol-2-yl ketones and fungicidal composition” (Schering Aktiengesellschaft, priority 1973, dated 1977).

In brackets after ≈: the same amount, converted by molar mass.

The term MIC denotes the smallest concentration in the dilution series that meets the test's criterion for growth inhibition. A low value points to a more susceptible organism.

Format in all cases: cell-based
One assay concerns Candida albicans. Kind of assay: minimum inhibitory concentration (MIC) against fungi, Cand. alb. The source says: (§1) As examples of the effectiveness of the compounds of general Formula III against fungi, Table I indicates the minimum inhibitory concentrations (MIC) of several compounds. The comparison compounds are the known 2-Dimethylamino-6-(β-diethylaminoethoxy)-benzothiazole dihydrochloride and two 5-nitrothiazole derivatives substituted in the 2-position, which are known in the literature (J. Med. Chem. 12 [1969] 303).

In assay [1] the test system is Trichophyton mentagrophytes. Kind of assay: minimum inhibitory concentration (MIC) against fungi, Trich. ment.
Source text: as §1

Another assay relates to Trichophyton rubrum. Kind of assay: minimum inhibitory concentration (MIC) against fungi, Trich. rubr.
Source text: as §1

On to `Cc1cc(C(=O)c2ncc([N+](=O)[O-])s2)c(C)c(C)c1O`, for which the MIC with Candida albicans was 1.6 µg/mL (≈ 5.47 µM); in assay [1], 6.3 µg/mL (≈ 21.6 µM); against Trichophyton rubrum it was 3.1 µg/mL (≈ 10.6 µM).

Take `Cc1ccc(C(=O)c2ncc([N+](=O)[O-])s2)c(F)c1C`: the minimal inhibitory concentration (MIC) is 1.6 µg/mL (≈ 5.71 µM) against Candida albicans, 3.1 µg/mL (≈ 11.1 µM) in assay [1] and 3.1 µg/mL (≈ 11.1 µM) with Trichophyton rubrum.

For the molecule `O=C(c1ccc(Br)s1)c1ncc([N+](=O)[O-])s1`, the minimal inhibitory concentration (MIC) stood at 0.4 µg/mL (≈ 1.25 µM) with Candida albicans, 1.6 µg/mL (≈ 5.01 µM) in assay [1] and 1.6 µg/mL (≈ 5.01 µM) against Trichophyton rubrum.

Turning to `CCOC(=N)c1ncc([N+](=O)[O-])s1`, the minimum inhibitory concentration (MIC) (with Candida albicans; in assay [1]; with Trichophyton rubrum) was 50 µg/mL (≈ 249 µM) each time.

In the case of `CC(=O)NN=Cc1ncc([N+](=O)[O-])s1`, the MIC came to 25 µg/mL (≈ 117 µM) in the assay with Candida albicans, 12.5 µg/mL (≈ 58.4 µM) in assay [1] and 12.5 µg/mL (≈ 58.4 µM) against Trichophyton rubrum.

Consider `CCN(CC)CCOc1ccc2nc(N(C)C)sc2c1.Cl.Cl` [2-Dimethylamino-6-(β-diethylaminoethoxy)-benzothiazole dihydrochloride], for which the MIC was 300 µg/mL against Candida albicans, 50 µg/mL in assay [1] and 50 µg/mL with Trichophyton rubrum.
